In patent US20070142457A1, “Crystalline forms of docetaxel and processes for their preparation” (priority 2005, published 2007):

Test: solubility compared with docetaxel trihydrate
Assay type: physicochemical
Settings: relative to docetaxel trihydrate; statement in words, no method or figures given

Q: With `CC(=O)O[C@@]12CO[C@@H]1C[C@H](O)[C@@]1(C)C(=O)[C@H](O)C3=C(C)[C@@H](OC(=O)[C@H](O)[C@@H](NC(=O)OC(C)(C)C)c4ccccc4)C[C@@](O)([C@@H](OC(=O)c4ccccc4)[C@H]21)C3(C)C` [docetaxel polymorph of the invention, docetaxel] as the molecule, how does the solubility read?
A: greater solubility than docetaxel trihydrate
